From patent US20220380309A1, “CHOLINE METABOLISM INHIBITORS” (President and Fellows of Harvard College, priority 2018, published 2022)

The compounds below were run on fecal sample (assay: Choline TMA-lyase activity in a fecal suspension ex vivo). Settings: TMA generation, fecal sample 1:10 in Mega media, 1 mM choline-d9, 18 h, 37° C.; read-out: EC50 against fecal sample.
Type: cell-based

SMILES	EC50
CN1CC=CC(O)C1 (stereo not drawn) [drawing 203]	78 µM
CN1CC=C[C@H](O)C1 [drawing 204]	60 µM

These compounds were tested on E. coli MS69-1 (assay: Choline TMA-lyase activity (TMA generation) in cut gene cluster-harboring bacteria). Settings: 1 mM choline-d9, 3.5 hours, 37° C., read-out: EC50 against E. coli MS69-1.
Type: cell-based, Escherichia coli

SMILES	EC50
CN1CC=CC(O)C1 (stereo not drawn) [drawing 203]	27 µM
CN1CC=C[C@@H](O)C1 [drawing 205]	64 µM
CN1CC=C[C@H](O)C1 [drawing 204]	22 µM

These compounds were tested on P. mirabilis ATCC 29906 in the same assay as above. Settings: 1 mM choline-d9, 3.5 hours, 37° C., read-out: EC50 against P. mirabilis ATCC 29906.
Type: cell-based, Proteus mirabilis

SMILES	EC50
CN1CC=CC(O)C1 (stereo not drawn) [drawing 203]	97 µM
CN1CC=C[C@@H](O)C1 [drawing 205]	366 µM
CN1CC=C[C@H](O)C1 [drawing 204]	92 µM

These compounds were tested on E. coli MS 200-1 (assay: Inhibition of TMA production in whole cells (LC-MS/MS assay for choline TMA-lyase activity, d9-TMA from d9-choline)). Settings: Escherichia coli, MS2001, 3.5 h.
Type: cell-based

SMILES	EC50
CN1CCCC(O)CC1 (stereo not drawn) [Compound 24]	760 µM
CC1CCCC1N1CC=CC(O)C1 (stereo not drawn) [Compound 5]	15 µM

Same assay, conditions: Escherichia coli, MS2001, 3.5 h, read-out: EC50 against E. coli MS200-1

SMILES	EC50
CN1CCCC(O)CC1 (stereo not drawn) [drawing 109]	762 µM
OC1C=CCCC1 (stereo not drawn) [drawing 162]	259 µM
O[C@@H]1C=CCCC1	404 µM
OC1C=CCN(C2CCCC2Cl)C1 (stereo not drawn)	52 µM
CC1CCCC1N1CC=C[C@@H](O)C1 (stereo partly drawn) [drawing 145]	164 µM
CC1CCCC1N1CC=C[C@H](O)C1 (stereo partly drawn) [drawing 144]	9 µM
CC1CCCC1N1CC=CC(O)C1 (stereo not drawn) [drawing 143]	15 µM
O[C@H]1C=CCCC1	482 µM
OC1C=CCN(CCCl)C1 (stereo not drawn)	113 µM

Same assay, conditions: Escherichia coli, MS2001; Table 2; inhibition of TMA-d9 production, 1 mM choline-d9, anaerobic, 3.5 hrs, 37° C.; read-out: EC50

SMILES	EC50
OC1C=CCN(C2CCCC2)C1 (stereo not drawn) [Compound 2]	54 µM
CC1CCCCC1N1CC=C[C@@H](O)C1 (stereo partly drawn) [Compound 9]	68 µM
CC1CCCCC1N1CC=CC(O)C1 (stereo not drawn) [Compound 6]	2 µM
CN1CCC(O)C1 (stereo not drawn) [Compound 14]	6300 µM
CN1CCCCC1CN (stereo not drawn) [Compound 17]	120 µM
OC1C=CCN(C2CCCCC2)C1 (stereo not drawn) [Compound 3]	20 µM
OC1C=CCOC1 (stereo not drawn) [Compound 22]	25 µM
CN1CCC(O)CC1 [Compound 15]	4400 µM
OC1C=CCN(C2CCC2)C1 (stereo not drawn) [Compound 1]	154 µM
O[C@@H]1C=CCN(C2CCCCC2)C1 [Compound 7]	108 µM
CC1CCCCC1N1CC=C[C@H](O)C1 (stereo partly drawn) [Compound 10]	1.2 µM
OC1C=CCN(C2CCCCCC2)C1 (stereo not drawn) [Compound 4]	24 µM
CN1CCC[C@@H]1CO [Compound 21]	2040 µM
CN1CCCC1CO (stereo not drawn) [Compound 19]	250 µM
CN1CCC[C@H]1CO [Compound 20]	280 µM
C[N+]1(C)CC=CC(O)C1 (stereo not drawn) [Compound 25]	10 µM
O[C@H]1C=CCN(C2CCCCC2)C1 [Compound 8]	14 µM

Same assay, conditions: Escherichia coli, MS2001; Table 3; TMA generation of E. coli MS200-1; 100 μM compound

SMILES	inhibition at 100 µM
COC1CCCCC1N1CC=CC(O)C1 (stereo not drawn)	40%

Same assay, conditions: Escherichia coli, MS2001; Table 3; TMA generation of E. coli MS200-1; 1 mM compound

SMILES	inhibition at 1000 µM
COC(=O)C1CCCC1N1CC=CC(O)C1 (stereo not drawn)	62%

Same assay, conditions: Escherichia coli, MS2001; Table 3; TMA generation of E. coli MS200-1; 3 mM compound

SMILES	inhibition at 3000 µM
CC(C)N1CC=CC(O)C1 (stereo not drawn) [drawing 136]	83%
OC1C=CCN(Cc2ccccn2)C1 (stereo not drawn)	96%

Same assay, conditions: Escherichia coli, MS2001; Table 3; TMA generation, 1 mM choline-d9, anaerobic, 3.5 h, 37° C.; read-out: EC50 against E. coli MS200-1

SMILES	EC50
C[N+]1(C)CC[C@@H](O)C1	2100 µM
CN1CCCC1CO (stereo not drawn) [drawing 170]	298 µM
CC1CCCCC1N1CC=CC(O)C1 (stereo not drawn) [drawing 153]	2 µM
C=CC(O)CN(C)C (stereo not drawn) [drawing 174]	70 µM
CN1CCC[C@H]1CO [drawing 171]	185 µM
CC1CCC(N2CC=CC(O)C2)C1 (stereo not drawn)	49 µM
CC1=CC(O)CCC1 (stereo not drawn)	14100 µM
OC1C=CCOC1 (stereo not drawn) [drawing 167]	80 µM
CN1CCC(O)C1 (stereo not drawn) [drawing 102]	6300 µM
OC1C=CCN(C2CCC2)C1 (stereo not drawn) [drawing 137]	192 µM
CC1CCCCC1N1CC=C[C@@H](O)C1 (stereo partly drawn) [drawing 155]	68 µM
CC1CCC(N2CC=CC(O)C2)CC1 (stereo not drawn)	42 µM
COc1ccc(CN2CC=C[C@H](O)C2)cc1	383 µM
OC1C=CCN(Cc2cccs2)C1 (stereo not drawn)	225 µM
C[N+]1(C)CC=CC(O)C1 (stereo not drawn) [drawing 114]	8 µM
C[N+]1(C)CCCC(O)C1 (stereo not drawn)	> 30000 µM
CN1CCC(=O)C1	> 30000 µM
CN1CCC[C@@H]1CO [drawing 172]	1820 µM
OC1C=CCN(Cc2ccccc2)C1 (stereo not drawn) [drawing 124]	367 µM
O[C@@H]1C=CCN(C2CCC2)C1	193 µM
C[N+]1(C)CC=C[C@H](O)C1	9 µM
CN1CCC(O)CC1 [drawing 108]	4470 µM
O[C@@H]1C=CCOC1	84 µM
CN1CCCCC1CO (stereo not drawn)	120 µM
O[C@@H]1C=CCN(C2CCCCC2)C1 [drawing 152]	108 µM
OC1C=CCN(Cc2ccoc2)C1 (stereo not drawn)	256 µM
O[C@H]1C=CCN(CC2CC2)C1	319 µM

SMILES	EC50
C[N+]1(C)CC=C[C@@H](O)C1	22 µM
O[C@H]1C=CCN(C2CCCC2)C1	41 µM
O[C@H]1C=CCN(C2CCC2)C1	116 µM
CC1CCCCC1N1CC=C[C@H](O)C1 (stereo partly drawn) [drawing 154]	12 µM
CC(=O)OC1C=CCN(C)C1 (stereo not drawn)	1790 µM
OC1C=CCN(C2CCCCC2)C1 (stereo not drawn) [drawing 150]	22 µM
O[C@H]1C=CCN(C2CCCCC2)C1 [drawing 151]	14 µM
O[C@H]1C=CCOC1	112 µM
CCCN1CC=CC(O)C1 (stereo not drawn) [drawing 118]	196 µM
CC1=CCCCC1O (stereo not drawn)	3800 µM
OC1C=CCN(C2CCCCC2F)C1 (stereo not drawn)	12 µM
COc1ccc(CN2CC=C[C@@H](O)C2)cc1	141 µM
OC1C=CCN(CC2CCCCC2)C1 (stereo not drawn) [drawing 123]	91 µM
OC1C=CCN(C2CCCC2)C1 (stereo not drawn) [drawing 140]	42 µM
CC1=CC(O)CN(C)C1 (stereo not drawn) [drawing 117]	923 µM
OC1C=CCN(C2CCCCCC2)C1 (stereo not drawn) [drawing 160]	24 µM
O[C@@H]1C=CCN(CC2CC2)C1	151 µM
OC1C=CCN(C2CCSC2)C1 (stereo not drawn)	173 µM
OC1C=CCN(Cc2ccco2)C1 (stereo not drawn)	197 µM
OC1C=CCN(CCc2ccccc2)C1 (stereo not drawn)	294 µM
COc1ccc(CN2CC=CC(O)C2)cc1 (stereo not drawn)	304 µM
O[C@@H]1C=CCN(Cc2cccs2)C1	213 µM
O[C@@H]1C=CCN(C2CCCC2)C1	62 µM
O[C@H]1C=CCN(Cc2cccs2)C1	191 µM
OC1C=CCN(CC2CC2)C1 (stereo not drawn) [drawing 120]	252 µM
OC1C=CCN(Cc2ccsc2)C1 (stereo not drawn)	260 µM
CC1CCCC(N2CC=CC(O)C2)C1 (stereo not drawn)	17 µM

Same assay, conditions: Table 2; inhibition of TMA-d9 production, 1 mM choline-d9, anaerobic, 3.5 hrs, 37° C.; read-out: EC50

SMILES	EC50
CN1CC=CC(O)C1 (stereo not drawn) [Compound 11]	10 µM
CN1CCCC(=O)C1 [Compound 16]	9500 µM
CN1CC=C[C@@H](O)C1 [Compound 13]	15 µM
CN1CC=C[C@H](O)C1 [Compound 12]	10 µM

Same assay, conditions: Table 3; TMA generation, 1 mM choline-d9, anaerobic, 3.5 h, 37° C.; read-out: EC50 against E. coli MS200-1

SMILES	EC50
[2H]C1(O)C=CCN(C)C1 (stereo not drawn)	30 µM
CN1CC=CC(O)C1 (stereo not drawn) [drawing 110]	10 µM
CN1CC=C[C@H](O)C1 [drawing 112]	10 µM
CN1CCCC(=O)C1 [drawing 107]	27000 µM
CN1CC=C[C@@H](O)C1 [drawing 113]	31 µM

These compounds were tested against CutC (Oleidesulfovibrio alaskensis, UniProt Q30W70) (assay: biochemical). Settings: not given.
CutC, sequence (Q30W70 whole entry): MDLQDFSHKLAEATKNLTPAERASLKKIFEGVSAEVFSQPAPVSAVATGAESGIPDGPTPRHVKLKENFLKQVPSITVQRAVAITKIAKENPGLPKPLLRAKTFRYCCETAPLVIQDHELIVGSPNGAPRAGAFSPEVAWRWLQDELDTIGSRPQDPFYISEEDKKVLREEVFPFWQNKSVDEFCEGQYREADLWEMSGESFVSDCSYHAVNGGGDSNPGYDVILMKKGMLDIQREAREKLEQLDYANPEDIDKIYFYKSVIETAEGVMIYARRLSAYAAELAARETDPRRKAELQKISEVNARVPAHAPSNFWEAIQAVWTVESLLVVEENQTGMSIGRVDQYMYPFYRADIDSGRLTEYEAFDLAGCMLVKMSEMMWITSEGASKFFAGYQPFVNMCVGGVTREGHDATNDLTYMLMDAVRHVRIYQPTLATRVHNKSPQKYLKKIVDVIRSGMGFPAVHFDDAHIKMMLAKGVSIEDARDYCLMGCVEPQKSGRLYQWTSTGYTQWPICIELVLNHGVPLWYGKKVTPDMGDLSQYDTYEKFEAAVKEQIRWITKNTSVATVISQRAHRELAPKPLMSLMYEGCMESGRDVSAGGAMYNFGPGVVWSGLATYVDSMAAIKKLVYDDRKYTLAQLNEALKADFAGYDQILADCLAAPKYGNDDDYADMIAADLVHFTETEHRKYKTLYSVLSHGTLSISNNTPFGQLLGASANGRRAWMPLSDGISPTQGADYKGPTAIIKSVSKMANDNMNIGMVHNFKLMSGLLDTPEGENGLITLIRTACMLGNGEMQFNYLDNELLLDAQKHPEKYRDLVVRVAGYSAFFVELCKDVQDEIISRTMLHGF
Type: biochemical

SMILES	inhibition at 10 μM	IC50
CC1CCCC1N1CC=CC(O)C1 (stereo not drawn) [drawing 193]	No inhibition at 10 μM	–
OC1C=CCN(CC2CC2)C1 (stereo not drawn) [drawing 188]	–	76 µM
CC1CCCC1N1CC=C[C@H](O)C1 (stereo partly drawn) [drawing 194]	No inhibition at 10 μM	–
CC(C)N1CC=CC(O)C1 (stereo not drawn) [drawing 191]	–	110 µM
OC1C=CCN(C2CCCCCC2)C1 (stereo not drawn) [drawing 197]	–	14 µM
OC1C=CCN(C2CCC2)C1 (stereo not drawn) [drawing 192]	–	203 µM
OC1C=CCN(CC2CCCCC2)C1 (stereo not drawn) [drawing 189]	–	24 µM
CN1CCCC1CO (stereo not drawn) [drawing 200]	–	513 µM
CC1CCCC1N1CC=C[C@@H](O)C1 (stereo partly drawn) [drawing 195]	No inhibition at 10 μM	–
OC1C=CCN(C2CCCCC2)C1 (stereo not drawn) [drawing 196]	–	63 µM
C=CC(O)CN(C)C (stereo not drawn) [drawing 201]	–	23 µM

Same assay, conditions: read-out: IC50 CutC

SMILES	IC50
OC1C=CCCC1 (stereo not drawn) [drawing 198]	709 µM
CN1CCC(O)CC1 [drawing 179]	7010 µM
OC1C=CCOC1 (stereo not drawn) [drawing 199]	2890 µM
CCCN1CC=CC(O)C1 (stereo not drawn) [drawing 187]	141 µM
OC1C=CCN(Cc2ccccc2)C1 (stereo not drawn) [drawing 190]	100 µM
CC1=CC(O)CN(C)C1 (stereo not drawn) [drawing 186]	422 µM
CN1CCCC(O)CC1 (stereo not drawn) [drawing 180]	2600 µM
CN1CCC(O)C1 (stereo not drawn) [drawing 176]	844 µM
C[N+]1(C)CC=CC(O)C1 (stereo not drawn) [drawing 185]	7 µM

The compounds below were run on Klebsiella sp. MS92-3 (assay: Choline TMA-lyase activity (TMA generation) in cut gene cluster-harboring bacteria). Settings: 1 mM choline-d9, 3.5 hours, 37° C., read-out: EC50 against Klebsiella sp. MS92-3.
Type: cell-based

SMILES	EC50
CN1CC=CC(O)C1 (stereo not drawn) [drawing 203]	5 µM
CN1CC=C[C@@H](O)C1 [drawing 205]	17 µM
CN1CC=C[C@H](O)C1 [drawing 204]	4 µM
